Data on one compound can be found in PMC12051620, “Molecular basis underlying the specificity of an antagonist AA92593 for mammalian melanopsins” (The Journal of Biological Chemistry, 2025).

The assay deals with T1, mouse melanopsin WT (Mus musculus, UniProt Q9QXZ9).
T1 construct: expressed in transfected cells; host or cells: COS-1
T1 sequence (Q9QXZ9 1-381 limits assumed): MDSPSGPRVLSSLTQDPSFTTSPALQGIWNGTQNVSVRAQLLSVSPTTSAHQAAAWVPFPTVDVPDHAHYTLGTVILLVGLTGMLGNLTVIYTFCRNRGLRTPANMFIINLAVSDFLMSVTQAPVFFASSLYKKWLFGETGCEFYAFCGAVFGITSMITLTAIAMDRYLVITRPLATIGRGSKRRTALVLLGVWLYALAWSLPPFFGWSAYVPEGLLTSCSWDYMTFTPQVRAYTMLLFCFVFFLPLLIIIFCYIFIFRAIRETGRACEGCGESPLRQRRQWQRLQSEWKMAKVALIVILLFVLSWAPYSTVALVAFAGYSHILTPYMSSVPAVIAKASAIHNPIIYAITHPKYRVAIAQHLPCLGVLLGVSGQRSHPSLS
Nature of the assay: GsX GloSensor assay with Gsα/q11. Type of assay: cell-based. The conditions noted are these: COS-1 cells. The text has this:
To quantify the antagonistic effects of AA92593 on mammalian melanopsins, we used the GsX GloSensor assay ([12], [13], [14]). This assay measures GPCR-induced increases in intracellular cAMP levels even for Gq-, Gi/o-, or G12-coupled receptors by using Gsα chimeras ([12], [13], [14]). Because melanopsin is primarily coupled with Gq-type G proteins, a Gsα mutant with 11 C-terminal sequence of Gqα (Gsα/q11) was expressed in COS-1 cells with melanopsin and a luciferase-based cAMP biosensor (see “Experimental procedures”) ([15]). This assay enables the measurement of Gq activation by melanopsin as cAMP production (an increase in luminescence). In this study, we used C-terminal–truncated melanopsin constructs to increase the expression levels with minimal compromise in functionality ([9], [16], [17], [18], [19]). […] In addition, the C-terminal region is located far from the binding site of AA92593 (see below). Hereafter, the C-terminal–truncated melanopsin constructs are named as “WT.”
In the constructs for melanopsin expression (opsin name - GenBank ID: human melanopsin - NM_033282.4, mouse melanopsin - NM_013887.2, Xenopus Opn4x - NM_001085674.1, chicken opn4-1 - NM_001397961.1, B. belcheri melanopsin - AB205400.1, and B. lanceolatum melanopsin - MF464477.1), the C-terminal amino acid residues (94, 140, 200, 214, 296, and 308 residues for human ([9]), mouse ([9]), Xenopus, chicken, belcheri ([16]), and lanceolatum melanopsins, respectively) were removed, the 1D4 tag sequence (ETSQVAPA) was added, and inserted into the EcoRI/NotI site in a mammalian expression vector pMT. Jumping spider rhodopsin-1 (GenBank ID: AB251846.1) was also added with the 1D4 tag and inserted into pMT vector. Human and mouse melanopsins, and jumping spider rhodopsin-1 in pCDNA3.1 were kindly provided from Drs. Akihisa Terakita and Mitsumasa Koyanagi (Osaka Metropolitan University). In this paper, each opsin with the C-terminal sequence modifications as described above is denoted “WT.” Bovine Gsα and its mutants Gsα/q11 and Gsα/i11 (C-terminal 11 residues are replaced with Gqα and Giα, respectively) were also inserted into the pMT vector. The GFP-tagged melanopsin constructs, in which EGFP protein fused with C-termini of melanopsins, were prepared as previously described ([9], [50]). […]
For GloSensor assay, opsins, GloSensor assay sensor (coded by pGlo-22F), and NanoBiT-tagged G proteins were transiently expressed in COS-1 cells (kindly provided from Dr David Farrens, Oregon Health and Science University) using PEI as described previously ([24], [52]). […] For GFP-fluorescence microscopy, a 35-mm cell culture dish (IWAKI) was transfected with 2 μg melanopsin-GFP plasmid and 8 μg PEI in 400 μl Opti-mem and 1.2 ml D-MEM. […]

Where [1] appears, read: relative peak cAMP response vs no AA92593.

Molecules are shown by their SMILES.

As to `COc1ccc(S(=O)(=O)N2CCCCC2)cc1C` [AA92593], the “Hill fitting parameter rate of dose-response curve” value is listed as −1.15 ± 0.18. Moreover, the IC50 (0.1 μM 9-cis-retinal, white light 10 s, n = 3, read-out: IC50, reduction in peak cAMP responses upon Gsα/q11 activation) amounted to 2980 ± 580 nM. Under setting [1], the “Hill fitting parameter max of dose-response curve” value came to 98.86 ± 1.11 and the “Hill fitting parameter min of dose-response curve” value was 46.53 ± 4.15.
